Source: PubChem BioAssay (NCI)
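Method: 48-hour compound exposure of cells in 96-well plates, five concentrations, linear interpolation of endpoints. At the GI50, growth is halved. Definition used: TGI = concentration required for complete inhibition of growth.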

Key:
Test in all cases: NCI tumour cell line growth inhibition, 48 h
SNB-19 CNS = system: SNB-19 CNS
M14 melanoma = system: M14 melanoma
NCI-H460 lung = system: NCI-H460 lung
UO-31 renal = system: UO-31 renal
TK-10 renal = system: TK-10 renal
MALME-3M melanoma = system: MALME-3M melanoma
SK-MEL-28 melanoma = system: SK-MEL-28 melanoma
HS 578T breast = system: HS 578T breast
EKVX NSCLC = system: EKVX NSCLC
SF-295 CNS = system: SF-295 CNS
CAKI-1 renal = system: CAKI-1 renal
SR leukemia = system: SR leukemia
HT29 colon = system: HT29 colon
NCI/ADR-RES ovarian = system: NCI/ADR-RES ovarian
ACHN renal = system: ACHN renal
SF-268 CNS = system: SF-268 CNS
BT-549 breast = system: BT-549 breast
MDA-MB-435 = system: MDA-MB-435
K-562 leukemia = system: K-562 leukemia
T-47D breast = system: T-47D breast
HOP-92 NSCLC = system: HOP-92 NSCLC
OVCAR-4 ovarian = system: OVCAR-4 ovarian
HCC-2998 colon = system: HCC-2998 colon
OVCAR-8 ovarian = system: OVCAR-8 ovarian
SW-620 colon = system: SW-620 colon
SK-OV-3 ovarian = system: SK-OV-3 ovarian
NCI-H226 lung = system: NCI-H226 lung
HL-60(TB) leukemia = system: HL-60(TB) leukemia

CCCCCCNC(=O)Oc1ccc(/C(=C(/C)c2ccccc2)c2ccc(OCCN3CCCCCC3)cc2)cc1
GI50 (SNB-19 CNS): 16.6 µM
TGI (SNB-19 CNS): 69.8 µM
GI50 (M14 melanoma): 2.89 µM
TGI (M14 melanoma): 11.1 µM
GI50 (NCI-H460 lung): 4.27 µM
TGI (NCI-H460 lung): 16.1 µM
GI50 (UO-31 renal): 4.02 µM
TGI (UO-31 renal): 17 µM
GI50 (TK-10 renal): 16.3 µM
TGI (TK-10 renal): 30.5 µM
GI50 (MALME-3M melanoma): 7.97 µM
TGI (MALME-3M melanoma): 21.5 µM
GI50 (SK-MEL-28 melanoma): 5.98 µM
TGI (SK-MEL-28 melanoma): 19.8 µM
GI50 (HS 578T breast): 8.02 µM
TGI (HS 578T breast): 26.9 µM
GI50 (EKVX NSCLC): 13.2 µM
TGI (EKVX NSCLC): 31.2 µM
GI50 (SF-295 CNS): 5.74 µM
TGI (SF-295 CNS): 18.6 µM
GI50 (CAKI-1 renal): 2.74 µM
TGI (CAKI-1 renal): 11.9 µM
GI50 (SR leukemia): 2.58 µM
TGI (SR leukemia): 12 µM
GI50 (HT29 colon): 3.07 µM
TGI (HT29 colon): 11.1 µM
GI50 (NCI/ADR-RES ovarian): 12.3 µM
TGI (NCI/ADR-RES ovarian): 28.8 µM
GI50 (ACHN renal): 13.3 µM
TGI (ACHN renal): 26.2 µM
GI50 (SF-268 CNS): 12.7 µM
TGI (SF-268 CNS): 29.4 µM
GI50 (BT-549 breast): 8.55 µM
TGI (BT-549 breast): 21.8 µM
GI50 (MDA-MB-435): 10.8 µM
TGI (MDA-MB-435): 23.3 µM
GI50 (K-562 leukemia): 2.87 µM
TGI (K-562 leukemia): > 100 µM
GI50 (T-47D breast): 3.07 µM
TGI (T-47D breast): 21 µM
GI50 (HOP-92 NSCLC): 2.9 µM
TGI (HOP-92 NSCLC): 14.9 µM
GI50 (OVCAR-4 ovarian): 10 µM
TGI (OVCAR-4 ovarian): 23.4 µM
GI50 (HCC-2998 colon): 11 µM
TGI (HCC-2998 colon): 23.5 µM
GI50 (OVCAR-8 ovarian): 13.1 µM
TGI (OVCAR-8 ovarian): 26.6 µM
GI50 (SW-620 colon): 3.18 µM
TGI (SW-620 colon): 12.5 µM
GI50 (SK-OV-3 ovarian): 13 µM
TGI (SK-OV-3 ovarian): 26.4 µM
GI50 (NCI-H226 lung): 13.3 µM
TGI (NCI-H226 lung): 28.7 µM
GI50 (HL-60(TB) leukemia): 2.79 µM
TGI (HL-60(TB) leukemia): 17.7 µM
